# Assay results taken from patent US20080096958A1, “Antibacterial Composition” (priority 2004, published 2008).
# Where two headings read alike, the source gives them in different places.
# Columns and labels:
# Assay type in all cases: cell-based
# [1] = tested on: Staphyrococcus aureus 209P IAM 12082; assay: MIC by Agar Dilution Test, Sa-3; conditions: read-out: Minimum inhibitory concentration (MIC)
# Protocol: (§1) Minimum inhibitory concentration (MIC) was determined by Agar Dilution Test (ADT).
# (§2) Each antibacterial composition obtained in Example 1 was dissolved in ethanol or water (according to solubility of each antibacterial composition) to carry out two-fold serial dilution. A hundred μl of the resultant was added to a 10 ml sterilized agar medium (skin-related bacteria and standard bacteria in Mueller-Hinton Medium (Difco), yeast and filamentous bacteria in Sabroud Medium (Difco) and anaerobic bacteria in Trypticase Soy agar (BBL)), well agitated, transferred to a 9 cmf petri dish and immobilized at room temperature. To this petri dish, a 27-spot microplanter MIT-P from Sakuma Seisakusho, LTD. was used to spot 1×10^5 cfu (colony forming unit) of skin-related bacteria and standard bacteria, and the resultants were cultured at 37° C. for 18 hours. Anaerobic bacteria are cultured at 37° C. for 72 hours under anaerobic conditions (using BBL gas pack anaerobic system). After completion of cultivation, growth of each bacterium was compared with that in a petri dish with alcohol alone (blank). A concentration of a sample without a bacterium growth was determined as the minimum inhibitory concentration (MIC).
# (§3) As comparative substances, butylparaben (BPHB) and triclosan were determined as well.
# [2] = tested on: Staphyrococcus aureus ATCC 6538; assay: MIC by Agar Dilution Test, Sa-4; conditions: read-out: Minimum inhibitory concentration (MIC)
# Protocol: as §1, §2, §3
# (§4) Minimum inhibitory concentration was determined by Agar Dilution Test described in Example 3 to confirm the difference of antibacterial activities at different mixture ratios.
# [3] = tested on: Prevotella intermedia JCM 6322; assay: MIC by Agar Dilution Test, Pt-1; conditions: read-out: Minimum inhibitory concentration (MIC)
# Protocol: as §1, §2, §3, §4
# [4] = tested on: Malassezia furfur IFO 0656; assay: MIC by Agar Dilution Test, Mf-1; conditions: read-out: Minimum inhibitory concentration (MIC)
# Protocol: as §1, §2, §3
# [5] = tested on: Propionibacterium acnes JCM 6473; assay: MIC by Agar Dilution Test, Pa-2; conditions: Cutibacterium acnes, read-out: Minimum inhibitory concentration (MIC)
# Protocol: as §1, §2, §3
# [6] = tested on: Staphyrococcus epidermidis var. h-6; assay: MIC by Agar Dilution Test, Se-2; conditions: read-out: Minimum inhibitory concentration (MIC)
# Protocol: as §1, §2, §3
# [7] = tested on: Staphyrococcus epidermidis ATCC 12228; assay: MIC by Agar Dilution Test, Se-3; conditions: read-out: Minimum inhibitory concentration (MIC)
# Protocol: as §1, §2, §3
# [8] = tested on: Bacillus subtilis PCI 219 IFO 3134; assay: MIC by Agar Dilution Test, Bs-1; conditions: read-out: Minimum inhibitory concentration (MIC)
# Protocol: as §1, §2, §3, §4
# [9] = tested on: Bacteroides fragilis GM 7000 JCM 5560; assay: MIC by Agar Dilution Test, Bf-1; conditions: read-out: Minimum inhibitory concentration (MIC)
# Protocol: as §1, §2, §3, §4
# [10] = tested on: Fusobacterium nucleatum JCM 6328; assay: MIC by Agar Dilution Test, Fn-1; conditions: read-out: Minimum inhibitory concentration (MIC)
# Protocol: as §1, §2, §3
# [11] = tested on: Actinomyces naeslundii JCM 8350; assay: MIC by Agar Dilution Test, Aa-1; conditions: read-out: Minimum inhibitory concentration (MIC)
# Protocol: as §1, §2, §3
# [12] = tested on: Staphyrococcus epidermidis JCM 2414; assay: MIC by Agar Dilution Test, Se-1; conditions: read-out: Minimum inhibitory concentration (MIC)
# Protocol: as §1, §2, §3
# [13] = tested on: Actinomyces viscosus JCM 8352; assay: MIC by Agar Dilution Test, Av-1; conditions: read-out: Minimum inhibitory concentration (MIC)
# Protocol: as §1, §2, §3
# [14] = tested on: Porphyromonas gingivalis JCM 8525; assay: MIC by Agar Dilution Test, Pg-1; conditions: read-out: Minimum inhibitory concentration (MIC)
# Protocol: as §1, §2, §3
# [15] = tested on: Corynebacterium xerosis JCM 1324; assay: MIC by Agar Dilution Test, Cx-2; conditions: read-out: Minimum inhibitory concentration (MIC)
# Protocol: as §1, §2, §3
# [16] = tested on: Alicyclobacillus Acidocaldarius (NCIMB); assay: MIC using heat-resistant acidophilic bacteria (liquid medium, turbidity); conditions: spores in AAM liquid medium, 50° C., 10 days; growth inhibited in all five media
# Protocol: (§5) Spores of Alicyclobacillus Acidocaldarius (NCIMB) and Alicyclobacillus Acidoterrestris (NCIMB) were diluted with buffered saline to 1-2 million/100 μl, heated at 80° C. for 10 minutes, and added for 100 μl each per 5 ml of AAM (Alicyclobacillus Acidoterrestris medium) liquid medium. To the test media prepared as above, antibacterial composition (A) obtained in Example 1 was added according to the following steps. Twenty mg/ml, 10 mg/ml, 5 mg/ml and 2.5 mg/ml antibacterial composition (A) in grapefruit flavors were added to respective media (0.1%) (final concentration of antibacterial composition (A): 20 ppm, 10 ppm, 5 ppm and 2.5 ppm). As controls, a medium with 0.1% grapefruit flavor and a blank medium were prepared to confirm that the bacteria grow without a problem. The thus-prepared media were cultured at 50° C. for 10 days, bacteria growth was determined based on the turbidity of the media associated with proliferation of bacteria, thereby checking growth control effects. For each test bacterium and each sample, five media were subjected to the experiment, and a concentration at which bacteria in every media were inhibited was determined as the minimum inhibitory concentration (MIC).
# (§6) For comparison, sucrose fatty acid ester was also determined.
# [17] = tested on: Alicyclobacillus Acidoterrestris (NCIMB); assay: as above; conditions: spores in AAM liquid medium, 50° C., 10 days; growth inhibited in all five media
# Protocol: as §5, §6
# [18] = Sa-3, Mueller-Hinton agar, 37° C., 18 hours
# [19] = Sa-4, Mueller-Hinton agar, 37° C., 18 hours
# [20] = JCM6322, Pt-1, Trypticase Soy agar, 37° C., 72 hours, anaerobic
# [21] = Mf-1 (yeast), Sabroud Medium agar
# [22] = JCM6473, Pa-2, Trypticase Soy agar, 37° C., 72 hours, anaerobic
# [23] = Se-2, Mueller-Hinton agar, 37° C., 18 hours
# [24] = Se-3, Mueller-Hinton agar, 37° C., 18 hours
# [25] = IFO3134, Bs-1, Mueller-Hinton agar, 37° C., 18 hours
# [26] = JCM5560, Bf-1, Trypticase Soy agar, 37° C., 72 hours, anaerobic
# [27] = JCM6328, Fn-1, Trypticase Soy agar, 37° C., 72 hours, anaerobic
# [28] = JCM8350, Aa-1, Trypticase Soy agar, 37° C., 72 hours, anaerobic
# [29] = Se-1, Mueller-Hinton agar, 37° C., 18 hours
# [30] = JCM8352, Av-1, Trypticase Soy agar, 37° C., 72 hours, anaerobic
# [31] = JCM8525, Pg-1, Trypticase Soy agar, 37° C., 72 hours, anaerobic
# [32] = JCM1324, Cx-2, Mueller-Hinton agar, 37° C., 18 hours
compound,measurement,setting,value
"COc1cc(O)c2ccc(=O)oc2c1C/C=C(/C)CCC=C(C)C [Antibacterial composition (F), 8-(3′,7′-dimethyl-2′,6′-octadienyl)-5-hydroxy-7-methoxy-2H-1-benzopyran-2-one]",MIC,[1]; [18],25 µg/mL
same,MIC,[2]; [19],200 µg/mL
same,MIC,[3]; [20],100 µg/mL
same,MIC,[4]; [21],25 µg/mL
same,MIC,[5]; [22],25 µg/mL
same,MIC,[6]; [23],200 µg/mL
same,MIC,[7]; [24],200 µg/mL
same,MIC,[8]; [25],200 µg/mL
same,MIC,[9]; [26],100 µg/mL
same,MIC,[10]; [27],25 µg/mL
same,MIC,[11]; [28],25 µg/mL
same,MIC,[12]; [29],200 µg/mL
same,MIC,[13]; [30],25 µg/mL
same,MIC,[14]; [31],25 µg/mL
same,MIC,[15]; [32],200 µg/mL
"CC(C)=CCC/C(C)=C\Cc1c2occc2c(O)c2ccc(=O)oc12 [Antibacterial composition (G), 9-(3′,7′-dimethyl-2′,6′-octadienyl)-4-hydroxy-7H-furo[3,2-γ][1]benzopyran-7-one]",MIC,[1]; [18],100 µg/mL
same,MIC,[2]; [19],200 µg/mL
same,MIC,[3]; [20],100 µg/mL
same,MIC,[4]; [21],50 µg/mL
same,MIC,[5]; [22],100 µg/mL
same,MIC,[6]; [23],200 µg/mL
same,MIC,[7]; [24],200 µg/mL
same,MIC,[8]; [25],200 µg/mL
same,MIC,[9]; [26],100 µg/mL
same,MIC,[10]; [27],50 µg/mL
same,MIC,[11]; [28],200 µg/mL
same,MIC,[12]; [29],200 µg/mL
same,MIC,[13]; [30],100 µg/mL
same,MIC,[14]; [31],50 µg/mL
same,MIC,[15]; [32],200 µg/mL
"CCCCOC(=O)c1ccc(O)cc1 [Butylparaben, butylparaben, reference compound]",MIC,[1]; 18 h,100 µg/mL
same,MIC,[2]; 18 h,200 µg/mL
same,MIC,"[3]; JCM6322, 72 h",100 µg/mL
same,MIC,[4],100 µg/mL
same,MIC,"[5]; JCM6473, 72 h",100 µg/mL
same,MIC,[6]; 18 h,200 µg/mL
same,MIC,[7]; 18 h,200 µg/mL
same,MIC,"[8]; IFO3134, 18 h",200 µg/mL
same,MIC,"[9]; JCM5560, 72 h",50 µg/mL
same,MIC,"[10]; JCM6328, 72 h",100 µg/mL
same,MIC,"[11]; JCM8350, 72 h",100 µg/mL
same,MIC,[12]; 18 h,200 µg/mL
same,MIC,"[13]; JCM8352, 72 h",100 µg/mL
same,MIC,"[14]; JCM8525, 72 h",50 µg/mL
same,MIC,"[15]; JCM1324, 18 h",50 µg/mL
"Oc1cc(Cl)ccc1Oc1ccc(Cl)cc1Cl [Triclosan, triclosan, reference compound]",MIC,[1]; 18 h,1.6 µg/mL
same,MIC,[2]; 18 h,1.6 µg/mL
same,MIC,[4],1.6 µg/mL
same,MIC,[6]; 18 h,1.6 µg/mL
same,MIC,[7]; 18 h,1.6 µg/mL
same,MIC,"[8]; IFO3134, 18 h",0.78 µg/mL
same,MIC,[12]; 18 h,1.6 µg/mL
same,MIC,"[15]; JCM1324, 18 h",3.1 µg/mL
sucrose fatty acid ester,Minimum inhibitory concentration (MIC),[16],20 ppm
same,Minimum inhibitory concentration (MIC),[17],20 ppm
